The term ED50 denotes the midpoint of the dose-response relation.

Structures can show the parent of a compound that is named as a salt. Where two headings read alike, the source gives them in different places. Some results are limits rather than exact numbers.

Results on 49 molecules are retold here after patent US5128343A, “Derivatives of pyrimidinyl-piperazinyl-alkyl azoles with anxiolytic and/or tranquilizing activity” (Laboratorios del Dr. Esteve, priority 1989, dated 1992).

In the test the test system is male Wistar rats. Nature of the test: conditioned avoidance response test (anxiolytic and tranquilizing action). As to conditions: suppression of conditioned avoidance response, oral administration 45 minutes before study; for Activity %: dose not given. It is filed as in vivo. On the procedure: In this test, male Wistar rats of 200 grams weight are used, trained to jump over a barrier in an avoidance and exit cage (shuttle box) (Letica, reference L1 910 and L1 2700) in the 30 seconds following their introduction into the cage.
The products with anxiolytic or tranquilizing activity suppress the conditioned avoidance response.
Training: first day: 11 tests, at intervals of 3 minutes. Electro-shock on the paws, at 30 seconds (5 mA, 0.1 s, 10 s).
Second and third days: 2 tests per day, solely with selected rats [sum of the points of the first day (excepting the first test)>14].
Day of test: groups formed of selected rats. Oral administration of the product or of the vehicle 45 minutes before starting the study.

The mark [1] stands for this setting: Rattus norvegicus, po, 0.75 h, read-out: ED50.

With `O=C1CC2(CCCC2)CC(=O)N1CCCCN1CCN(c2ncccn2)CC1` [Buspirone, reference compound], the Activity % is listed as 99%. The ED50 under setting [1] is 17.2 mg/kg. The like results for `c1cnc(N2CCN(CCCCn3cccn3)CC2)nc1` [Example 1, 1H-pyrazole-1-(4-(4-(2-pyrimidinyl)-1-piperazinyl)-butyl)] were, in that order, 98% and 26.2 mg/kg. `Cc1cc(C)n(CCCCN2CCN(c3ncccn3)CC2)n1` [Example 2] registered an Activity % of 50%. Also, under setting [1], the ED50 is 80 mg/kg.

In turn, `Cc1nn(CCCCN2CCN(c3ncccn3)CC2)c(C)c1[N+](=O)[O-]` [Example 3] yielded an Activity % of 61%. For the same molecule, under setting [1], the 50% effective dose (ED50) was 58.3 mg/kg. Turning to `Cc1cnn(CCCCN2CCN(c3ncccn3)CC2)c1` [Example 4], the Activity % is 98%. Further, the ED50 under setting [1] is below 20 mg/kg.

The molecule `c1cnc(N2CCN(CCCCn3ncc4ccccc43)CC2)nc1` [Example 5] gave an Activity % of 45%. For the same molecule, the ED50 under setting [1] worked out at 80 mg/kg. `Cc1nn(CCCCN2CCN(c3ncccn3)CC2)c(C)c1Br` [Example 6] displayed an Activity % of 51%. Under setting [1], the ED50 amounted to 80 mg/kg. The like results for `O=[N+]([O-])c1cnn(CCCCN2CCN(c3ncccn3)CC2)c1` [Example 7, 1H-pyrazole-4-nitro-1-(4-(4-(2-pyrimidinyl)-1-piperazinyl)-butyl)] were, in that order, 98% and 6.2 mg/kg. `Clc1cnn(CCCCN2CCN(c3ncccn3)CC2)c1` [Example 8, 1H-pyrazole-4-chloro-1-(4-(4-(2-pyrimidinyl)-1-piperazinyl)-butyl)] returned an Activity % of 95%. The same molecule gave an ED50 (45 min) of 17.9 mg/kg. In turn, `CCOC(=O)c1cnn(CCCCN2CCN(c3ncccn3)CC2)c1` [Example 9] yielded an Activity % of 14%.

`Cc1cc(-c2ccccc2)n(CCCCN2CCN(c3ncccn3)CC2)n1` [Example 10] had an Activity % of 24%. Regarding `Brc1cnn(CCCCN2CCN(c3ncccn3)CC2)c1` [Example 11], the Activity % is given as 95%. For the same molecule, under setting [1], the ED50 was 28.9 mg/kg.

The molecule `N#Cc1cnn(CCCCN2CCN(c3ncccn3)CC2)c1` [Example 12] returned an Activity % of 100%.

In the case of `Fc1cnn(CCCCN2CCN(c3ncccn3)CC2)c1` [Example 13], the Activity % worked out at 85%. `Nc1cnn(CCCCN2CCN(c3ncccn3)CC2)c1` [Example 15, 1H-pyrazole-4-amino-1-(4-(4-(2-pyrimidinyl)-1-piperazinyl)-butyl)] gave an Activity % of 79%. The ED50 under setting [1] was found to be 27.7 mg/kg.

Molecule `CS(=O)(=O)Nc1cnn(CCCCN2CCN(c3ncccn3)CC2)c1` [Example 16, 1H-pyrazole-4-methylsulfonamido-1-(4-(4-(2-pyrimidinyl)-1-piperazinyl)-butyl)] registered an Activity % of 64%. Moreover, under setting [1], the ED50 was found to be 40 mg/kg.

As for `O=C(Nc1cnn(CCCCN2CCN(c3ncccn3)CC2)c1)c1ccccc1` [Example 17], the Activity % is recorded as 62%. Under setting [1], the ED50 stood at 65.9 mg/kg. The like results for `CC(=O)Nc1cnn(CCCCN2CCN(c3ncccn3)CC2)c1` [Example 18] were, in that order, 89% and 28.8 mg/kg. Molecule `CCC(C)Nc1cnn(CCCCN2CCN(c3ncccn3)CC2)c1` (stereo not shown) [Example 19] showed an Activity % of 80%. Moreover, under setting [1], the ED50 is 29.7 mg/kg.

Take `Brc1cnc(N2CCN(CCCCn3cc(Br)cn3)CC2)nc1` [Example 20]: the Activity % was determined as 59%. For the same molecule, the ED50 under setting [1] worked out at 76.8 mg/kg. Taken in the same sequence, the figures for `Clc1cnn(CCCCN2CCN(c3ncc(Br)cn3)CC2)c1` [Example 21] were 48% and 51.7 mg/kg. For `Cc1ccnn1CCCCN1CCN(c2ncccn2)CC1` [Example 22], the Activity % amounted to 47%.

Turning to `Cc1c(Br)cnn1CCCCN1CCN(c2ncccn2)CC1` [Example 24, 1H-pyrazole-4-bromo-5-methyl-1-(4-(4-(2-pyrimidinyl)-1-piperazinyl)-butyl)], the Activity % worked out at 53%. In addition, under setting [1], the ED50 was found to be 60.6 mg/kg. Regarding `Cc1nn(CCCCN2CCN(c3ncccn3)CC2)cc1Br` [Example 25], the Activity % amounted to 59%. Further, the ED50 under setting [1] amounted to 58.3 mg/kg. The like results for `c1cnc(N2CCN(CCCCn3ncc4c3CCCC4)CC2)nc1` [Example 26] were, in that order, 97% and 19.5 mg/kg. Taken in the same sequence, the figures for `c1cnc(N2CCN(CCCCn3cc4c(n3)CCCC4)CC2)nc1` [Example 27] were 98% and 18.9 mg/kg. The like results for `Cc1c(-c2ccccc2)cnn1CCCCN1CCN(c2ncccn2)CC1` [Example 28] were, in that order, 75% and 32.2 mg/kg. In turn, `Cc1nn(CCCCN2CCN(c3ncccn3)CC2)cc1-c1ccccc1` [Example 29] returned an Activity % of 78%. Under setting [1], the ED50 turned out to be 31.9 mg/kg. The like results for `Fc1cn(CCCCN2CCN(c3ncccn3)CC2)nc1Cl` [Example 30] were, in that order, 85% and 53.9 mg/kg. Taken in the same sequence, the figures for `COc1ccc(-c2cnn(CCCCN3CCN(c4ncccn4)CC3)c2)cc1` [Example 32] were 60% and 22.5 mg/kg. The like results for `Clc1ccc(-c2cnn(CCCCN3CCN(c4ncccn4)CC3)c2)cc1` [Example 33] were, in that order, 90% and 15.7 mg/kg. As for `c1cnc(N2CCN(CCCCn3cc(-n4cccc4)cn3)CC2)nc1` [Example 34], the Activity % was 100%. In addition, the ED50 under setting [1] worked out at 5 mg/kg. Molecule `c1ccc(-c2cnn(CCCCN3CCN(c4ncccn4)CC3)c2)cc1` [Example 35] returned an Activity % of 100%. Moreover, under setting [1], the ED50 came out at 27.4 mg/kg. The like results for `c1ccc(-c2cc(-c3ccccc3)n(CCCCN3CCN(c4ncccn4)CC3)n2)cc1` [Example 36] were, in that order, 31% and 122 mg/kg. Taken in the same sequence, the figures for `O=S(=O)(Nc1cnn(CCCCN2CCN(c3ncccn3)CC2)c1)c1ccccc1` [Example 37] were 46% and 85 mg/kg.

In the case of `Cc1ccc(S(=O)(=O)Nc2cnn(CCCCN3CCN(c4ncccn4)CC3)c2)cc1` [Example 38], the Activity % was determined as 37%. Under setting [1], the ED50 worked out at 102 mg/kg.

In turn, `CCCCS(=O)(=O)Nc1cnn(CCCCN2CCN(c3ncccn3)CC2)c1` [Example 39] had an Activity % of 57%. Under setting [1], the ED50 was 73 mg/kg. Molecule `CCCS(=O)(=O)Nc1cnn(CCCCN2CCN(c3ncccn3)CC2)c1` [Example 40] returned an Activity % of 57%. Besides, the ED50 under setting [1] was found to be 73 mg/kg. For `CCS(=O)(=O)Nc1cnn(CCCCN2CCN(c3ncccn3)CC2)c1` [Example 41], the Activity % amounted to 77%. The ED50 under setting [1] is 29.3 mg/kg. In turn, `Cc1nn(CCCCN2CCN(c3ncccn3)CC2)c(C)c1S(=O)(=O)N(C)C` [Example 42] returned an Activity % of 45%. The ED50 under setting [1] was found to be 82 mg/kg. For `CN(C)S(=O)(=O)c1cnn(CCCCN2CCN(c3ncccn3)CC2)c1` [Example 43], the Activity % was 63%. Further, under setting [1], the ED50 was 72 mg/kg. In the case of `O=S(=O)(O)c1cnn(CCCCN2CCN(c3ncccn3)CC2)c1` [Example 44], the Activity % worked out at 15%. `c1cnc(N2CCN(CCCCn3ccnc3)CC2)nc1` [Example 45] gave an Activity % of 35%. The ED50 under setting [1] is 93 mg/kg. Molecule `Clc1ncn(CCCCN2CCN(c3ncccn3)CC2)c1Cl` [Example 46] had an Activity % of 99%. `Cc1cn(CCCCN2CCN(c3ncccn3)CC2)cn1` [Example 47] had an Activity % of 50%. The ED50 under setting [1] was 80 mg/kg.

As to `Cc1cncn1CCCCN1CCN(c2ncccn2)CC1` [Example 48], the Activity % worked out at 52%. Also, under setting [1], the ED50 stood at 75 mg/kg. The molecule `Clc1cnn(CCCCN2CCN(c3ncccn3)CC2)c1` [Example 49] showed an Activity % of 100%. The molecule further yielded an ED50 (45 min) of 14.5 mg/kg.

Where the note is “dihydrochloride, 45 min”, `Clc1cnn(CCCCN2CCN(c3ncccn3)CC2)c1` [Example 50, 1H-pyrazole-4-chloro-1-(4-(4-(2-pyrimidinyl)-1-piperazinyl)-butyldihydrochloride] registered an ED50 of 4.9 mg/kg. Where the note is “dihydrochloride”, this molecule returned an Activity % of 99%. `O=C1c2ccccc2S(=O)(=O)N1CCCCN1CCN(c2ncccn2)CC1` [Ipsapirone, reference compound] came in with an Activity % of 98%. The ED50 under setting [1] came out at 26.1 mg/kg.
